From PubChem BioAssay AID179 (DTP/NCI, 2004)
Values joined by “and” are separate entries in the source; they are usually repeats but may differ in a detail not shown here. Equal values may be shown once. Active and inactive are the calls of the source.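 The calls were made as follows: active = compounds giving half or more protection of infected cells from virus-caused growth loss, again on retest; inactive = the rest.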

Test system: CEM cells HIV-1 protection, formazan growth assay
Assay: NCI AIDS Antiviral Assay
Details: for IC50: measured here: growth of uninfected CEM cells
Summary of the method: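 Human CEM cells, uninfected and HIV-1-infected, received five drug concentrations, and growth was read by soluble formazan assay. Compounds giving at least 50% protection were retested; reproducible 100% protection defined confirmed active.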

| Compound | EC50 [µM] | IC50 | outcome |
| --- | --- | --- | --- |
| CCCCCCCCCCCc1c(O)c(O)cc2nc3cc(Cl)c(Cl)cc3nc12 | > 16.6 | 5.37 µM |  |
| N#CC(C#N)=Cc1cccc([N+](=O)[O-])c1 | > 178 | 15.5 µM |  |
| O=C(O)c1cc(Cc2ccc(O)c(C(=O)O)c2)ccc1O | 562 | 871 µM | active |
| CNc1ccc(S(=O)Nc2ccc(OC)cc2)cc1 (centres undefined) | > 200 | 17.8 µM |  |
| CC(=O)N(C(C)=O)n1c(Cc2ccc(C)cc2)nn(C(C)=O)c1=O | > 200 | > 200 µM |  |
| COc1ccc(SCc2ccc(C(=O)O)cc2[N+](=O)[O-])cc1 | > 295 | 162 µM |  |
| O=[N+]([O-])c1cc(C=NC23CC4CC(CC(C4)C2)C3)ccc1Cl | > 200 | 3.72 µM |  |
| FC(F)(F)c1ccc(C2=N/S(c3ccccc3)=N\C(c3ccc(C(F)(F)F)cc3)=N/S(c3ccccc3)=N\2)cc1 (centres undefined) | > 50.1 | > 50.1 µM |  |
| C[C@@H]1[C@H](C)N1CC(O)Cn1ccnc1[N+](=O)[O-] (some centres undefined) | > 200 | > 200 µM |  |
| COC(=O)c1c(C)cccc1C1CN=NC12Cc1cc(C)c(C)cc1C2=O (centres undefined) | > 200 | 120 µM |  |
| COc1cc(/C=C2\CC/C(=C\c3ccc(O)c(OC)c3)C2=O)ccc1O | > 200 | 1.48 µM |  |
| COc1ccc(C2OC(=O)c3cc[nH]c(=O)c32)cc1 (centres undefined) | > 141 | > 141 µM |  |
| OC/C=C/c1cccc(Cl)c1 |  |  | inactive |
| C/C(=C\CNc1ncnc2c1ncn2CCC(=O)OC(C)(C)C)CO | > 200 | > 200 µM |  |
| CN(C)NC(=S)C(F)(F)C(F)(F)F | > 200 | 10.2 µM |  |
| COc1ccc2nc3cc(Cl)ccc3c(NCCNC(=O)Cn3c(=O)n(C)c(=O)c4c3nc3c(c(=O)n(C)c(=O)n3C)[n+]4[O-])c2c1 | > 100 | 39.8 µM |  |
| COc1ccc(N=C(C)C(C)=Nc2ccc(OC)cc2)cc1 |  |  | inactive |
| CC(=O)c1ccc2c3ccccc3c3cccc4sc1c2c43 | > 22.4 | > 22.4 µM |  |
| CC1=CC(C)=Nc2ccc(Cl)cc2N1 | > 200 | 91.2 µM and > 200 µM |  |
| Cc1cc(C)c2c(=N)c3ccccc3n(CCCCCCCCn3c4ccccc4c(=N)c4c(C)cc(C)nc43)c2n1 | > 2 | 0.251 µM |  |
| O=[N+]([O-])c1nccn1COCCO | > 1320 | > 1320 µM |  |
| CCC(=O)N(O)C(C)(C)C | > 1740 | > 1740 µM |  |

| Compound | EC50 [µM] | IC50 | outcome |
| --- | --- | --- | --- |
| Cc1ccc(C)c(NC(=O)CC/C(=N\NC(=O)C(=O)NN)C(C)C(=O)c2ccc(O)cc2)c1 (centres undefined) |  |  | inactive |
| CC(NO)/C(=N/O)c1ccco1 (centres undefined) | > 200 | > 200 µM |  |
| COC(=O)c1cc2c(c(C(=O)OC)c1O)C(=O)C=CC2=O | > 25.1 | 6.61 µM |  |
| O=c1[nH]c2ccccc2nc1/C=C(\O)C(F)F | > 200 | > 200 µM |  |
| C=CCN(CC=C)C(=O)COc1cc2c(O)c3c(O)c(C)c4c(c13)C(=O)C(C)(O/C=C\C(OC)C(C)C(OC(C)=O)C(C)C(O)C(C)C(O)C(C)/C=C\C=C(\C)C(=O)N2)O4 (centres undefined) | > 200 | 17 µM |  |
| Cc1ccc(S(=O)(=O)c2c3[nH]c4ccccc4nc3n3c2nc2ccccc23)cc1 | > 120 | > 120 µM |  |
| c1ccc([S+]([CH2][Hg][CH2][S+](c2ccccc2)c2ccccc2)c2ccccc2)cc1 | > 30.2 | 10 µM |  |
| CC1C2CC=CC(=O)[C@@]2(C)CCC12OCCO2 (some centres undefined) |  |  | inactive |
| CCN(CC)/N=C\c1c2ccccc2cc2ccccc12 | > 200 | 85.1 µM |  |
| Cc1ccc(C(=O)/C=C/c2ccc(N(C)C)cc2)cc1 | > 7.59 | > 7.59 µM |  |
| ClC1=NSC(Cl)=NS1 | > 53.7 | > 53.7 µM |  |
| C=CCc1ccccc1N(C(=O)c1ccccc1)C(C(=O)OCC)c1ccccc1 (centres undefined) | > 13.2 | > 13.2 µM |  |
| COC(=O)C1(Cc2ccccc2)Cc2ccccc2C1O (centres undefined) | > 200 | 91.2 µM |  |
| COC(=O)C1(F)C(=O)NC(=O)NC1O (centres undefined) | > 200 | 91.2 µM |  |
| Cc1ccc([N+](=O)[O-])cc1NC1=NCCO1 | > 200 | 186 µM |  |
| CS(=O)(=O)Sc1ccccc1C(=O)O | > 1070 | > 1070 µM |  |
| CC(=O)Nc1ccc(-c2nnc(SCC(=O)Nc3ccccc3C)o2)cc1 | > 67.6 | 61.7 µM |  |
| C=C1N(c2nc(Cl)nc(Cl)n2)c2ccccc2C1(C)C | > 200 | 186 µM |  |
| CN1C(=O)c2ccccc2Cc2c(Cl)ncnc21 | > 200 | 34.7 µM |  |
| CO[C@H]1Nc2c(ccc(C)c2O)C(=O)N2C=C(/C=C/C(N)=O)C[C@@H]12 | > 759 | 0.427 µM |  |
| CC(C)OP(=O)(OC(C)C)C(C(C)C)N(C)/C(N)=N\C1=NC(C(F)(F)F)(C(F)(F)F)N=C(C(C(F)(F)F)C(F)(F)F)O1 (centres undefined) | > 200 | 0.0631 µM |  |
| O=S(=O)(c1ccccc1)n1cnc(CCc2ccccc2)n1 | > 794 | > 794 µM |  |

| Compound | EC50 [µM] | IC50 | outcome |
| --- | --- | --- | --- |
| O=c1c2ncn(C3CCCCO3)c2n(-c2ccccc2)c(=S)n1-c1ccccc1 (centres undefined) |  |  | inactive |
| N#Cc1cccc(/C=C/C(=O)c2ccccc2)c1 | > 22.4 | 4.07 µM |  |
| N#Cc1ccc(C=C2C(=O)NC(=O)NC2=O)cc1 | > 209 | 107 µM |  |
| O=[P+](O)c1cccnc1 |  |  | inactive |
| O=c1[nH]c(=S)[nH]c2c1CN(CCCN1CCOCC1)CN2 | > 794 | 49 µM |  |
| CC(=O)[O-].[Mn+3].[O-]c1ccc(Cl)cc1C=NCCN=Cc1cc(Cl)ccc1[O-] | > 240 | 12 µM |  |
| CCCOc1ccc(/C(Cl)=C(\C=O)c2ccc(OC)c(OC)c2)cc1OCCC | > 4.79 | > 4.79 µM |  |
| O=C(O)CC1Sc2ccccc2NC1=O (centres undefined) | > 1120 | > 1120 µM |  |
| C=C1OC2OC(C)C(NC(=O)OCC(Cl)(Cl)Cl)C(OC(C)=O)C2O1 (centres undefined) | > 234 | > 234 µM |  |
| O=c1c2ccccc2nc(N/N=C/c2ccc([N+](=O)[O-])cc2)n1-c1ccccc1 | > 50.1 | > 50.1 µM |  |
| COCN1C(=O)[C@@H]2CCCN2C(=O)c2cc([N+](=O)[O-])ccc21 | > 200 | 102 µM |  |
| CC1(C)CC(=O)c2c(N)n[nH]c2C1 | 11.2 | > 200 µM |  |
| CCOC(=O)c1c(SC(=O)C(C)(C)Oc2ccc(Cl)cc2)n(-c2ccccc2)c(=S)n(-c2ccccc2)c1=O | > 200 | 9.55 µM |  |
| C=C(C)C1CC[C@@](C)(O)[C@H](C#N)C1 (some centres undefined) | > 200 | > 200 µM |  |
| CC#N.CC#N.COC(=O)[C@@H]1CCC(=O)[N-]1.COC(=O)[C@@H]1CCC(=O)[N-]1.COC(=O)[C@@H]1CCC(=O)[N-]1.COC(=O)[C@@H]1CCC(=O)[N-]1.[Rh+2].[Rh+2] | > 200 | > 200 µM |  |
| O=P1(Oc2ccccc2)NCc2ncccc2O1 (centres undefined) | > 200 | > 200 µM |  |
| O=C(O)Cn1cc([N+](=O)[O-])c(=O)c2ccccc21 | > 200 | > 200 µM |  |
| O=c1[nH][nH]c(=O)c2nc(Nc3ccc(Cl)cc3)ncc12 | > 34.7 | > 34.7 µM |  |
| COc1ccc(-c2oc3cc(OC(C)=O)cc(OC(C)=O)c3c(=O)c2OC)cc1 |  |  | inactive |
| C/C=C/[C@H](O[Si](C)(C)C(C)(C)C)[C@@H](O)/C=C/C(=O)OCC | > 200 | 28.8 µM |  |
| CCN(CC)c1ccc(/C=C/c2n(-c3ccccc3)c3ccccc3[n+]2C)cc1 | > 2 | 0.115 µM |  |
| CCOC(=O)c1nnc(-c2ccccc2)nc1Cl | > 200 | > 200 µM |  |

| Compound | EC50 [µM] | IC50 | outcome |
| --- | --- | --- | --- |
| COc1ccc(OC)c(/C=C/c2ccnc3ccccc23)c1 | 0.0631 | 1.29 µM |  |
| N#CCCN(CCCN(C(=O)Nc1ccc(NC(=O)N(CCCN(CCC#N)C(N)=O)c2ccccc2)cc1)c1ccccc1)C(N)=O | > 200 | > 200 µM |  |
| Nc1nc(Cl)c(N)c(NCC2(CO)CC(O)C2)n1 (centres undefined) | > 200 | > 200 µM |  |
| CC1=C(CC2C(=O)N(c3ccccc3)S(=O)(=O)NC2C)C(=O)N(c2ccccc2)S(=O)(=O)N1C (centres undefined) | > 490 | 16.6 µM |  |
| CCOC(=O)CCCN(c1[nH]c(C)c(C)c1C#N)S(=O)(=O)c1ccc(C)cc1 | > 200 | 81.3 µM |  |
| O=C(CCl)Nc1ccccc1-c1ccccc1NC(=O)CCl |  |  | inactive |
| C[C@]12CCc3nonc3C1CC[C@@H]1C2CC[C@@]2(C)C1CC[C@@H]2O (some centres undefined) | > 214 | 174 µM |  |
| CCN(CC)Cc1c(/C=C\c2cc(OC)c(OC)c(OC)c2)ccc(OC)c1O | > 200 | 1.1 µM |  |
| O=C(N/N=C/c1cc(-c2ccccc2Cl)c(-c2ccccc2Cl)o1)c1ccncc1 | > 12 | > 12 µM |  |
| Cc1nc(N)nc(CCC(=O)Nc2cccc(C(F)(F)F)c2)c1-c1ccc(Cl)cc1 | > 302 | > 302 µM |  |
| Cc1cc(NS(=O)(=O)c2ccc(Nc3c4ccccc4nc4c(C(=O)NC(CO)(CO)CO)cccc34)cc2)no1 | > 200 | 11.2 µM |  |
| N#Cc1ccccc1NC(=O)/C(=N\NC(=O)c1ccncc1)C(c1cnc2ccc([N+](=O)[O-])cc2n1)[N+](=O)[O-] (centres undefined) | > 479 | 191 µM |  |
| O=C1CCCCCCC2=C1C(Sc1ccccc1)CC2 (centres undefined) | > 200 | 30.9 µM |  |
| COc1cccc(OC)c1C1ON=C(c2ccccc2)N1C12CC3CC(CC(C3)C1)C2 (centres undefined) | > 200 | 141 µM |  |
| COc1ccc(C(=O)O[C@H]2[C@@H]3C=CO[C@@H](OC4OC(CO)C(O)C(O)C4O)[C@@H]3[C@@]3(CO)O[C@@H]23)cc1O (some centres undefined) |  |  | inactive |
| CCCC(=O)NC(Nc1cc(C)ccn1)(C(=O)OCC)C(F)(F)F (centres undefined) | 105 | 501 µM |  |
| COc1cc2ccc3c(c2cc1OC)CCc1cn[nH]c1-3 | > 9.77 | > 9.77 µM |  |
| N#CN=C1N=S(=O)(c2ccccc2)c2ccccc21 (centres undefined) | > 186 | 162 µM |  |
| CC(=O)c1cccc(NC(=O)C(=O)c2c(O)c3ccccc3oc2=O)c1 | > 708 | 380 µM |  |
| COC(=O)/C(=N\NC(C)(C)C)C(C(=O)C(=O)Nc1cc(C)ccc1C)c1nc2ccccc2[nH]c1=O (centres undefined) |  |  | inactive |
| O=C(SC1=NCCS1)SC1=NCCS1 |  |  | inactive |
